Among the data in PubChem BioAssay (NCI) are TGI and GI50 values, retold here.

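Briefly, cells in 96-well plates were exposed to five compound concentrations for 48 h, and endpoints were estimated by linear interpolation. Here, GI50 denotes the concentration required for 50% inhibition of growth. TGI: total growth inhibition.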 A value given as a limit tells only on which side of the number the result lay.

For the first assay, the system named is NCI-H226 lung. The experiment in a line: DTP human tumour cell line panel, 48 h.
`CCOC(=O)C1(C)CCC(C(C(=O)O)C(=O)O)CC1=O` (stereo not drawn) showed a TGI above 100 µM.

Consider `CC1NOC(=O)C1N=Nc1ccc(Cl)cc1Cl` (stereo not drawn), for which the TGI was 63.4 µM.

On to `O=C1NC(=O)C2C(=O)NC(=O)C1C2Cc1ccco1` (stereo not drawn), for which the TGI is above 100 µM.

The compound `CCOC(=O)/C(=C/c1ccccn1)C(=O)c1ccccc1` yielded a TGI of 31.8 µM.

Compound `O=C(c1ccccc1)[C@H]1Nc2ccc(Cl)cc2[C@H]2CCC[C@@H]12` came in with a concentration for total growth inhibition (TGI) of 63.3 µM.

With `COc1ccc2nc(NC(=O)C(=O)CC(=O)c3ccc([N+](=O)[O-])cc3)sc2c1`, the TGI is above 100 µM.

Compound `CC(=O)Nc1ccc(C2CC(c3ccc([N+](=O)[O-])cc3)=Nc3ccccc3S2=O)cc1` (stereo not drawn) yielded a TGI of 64.5 µM.

The compound `COc1cc(/C=C2\NC(=O)C(Cc3cc(OC)c(OC)c(C)c3OC)N(C(C)=O)C2=O)c(OC)c(C)c1OC` (stereo not drawn) yielded a TGI above 100 µM.

As to `COc1cc(C(=O)/C=C/c2cccc(Nc3ccnc4cc(Cl)ccc34)c2)cc(OC)c1OC`, the GI50 was 1.27 µM and the TGI was 2.95 µM.

`O=NN(CCCl)C(=O)NC1CCC(CC(=O)O)CC1` (stereo not drawn) displayed a TGI above 100 µM.

`NNC(=O)C(=O)NN=C(C(Cl)(Cl)CO)C(Cl)(Cl)CO` came in with a TGI above 100 µM.

`COc1ccc(/C=C2\C(=O)N(NC(C)=O)c3ccccc32)cc1`: the TGI is above 100 µM.

Compound `O=C1N[C@@H]2CCCC[C@@H]2C12CCCCC2` came in with a TGI above 100 µM.

In turn, `COc1ccc2ccccc2c1C1=NC(C)(C)CO1` came in with a TGI above 100 µM.

The compound `NC1=NC(Cn2nc(-c3ccccc3)c3ccccc3c2=O)=NNC(=O)N1` came in with a TGI above 100 µM.

`O=C(CCCC(=O)Nc1ccc(Cl)cc1Cl)CC(=O)c1ccc2ccccc2c1` displayed a TGI above 100 µM.

Compound `O=C(NCCc1ccccc1)C1C(=O)C(=O)N(CCc2ccccc2)C1=O` (stereo not drawn) came in with a TGI above 100 µM.

The compound `OC(c1ccccc1Br)(c1ccccc1Br)C(F)(F)F` gave a TGI of 26.5 µM.

Consider `CC(=O)OC1COC(N2CCc3cc([N+](=O)[O-])ccc32)C(OC(C)=O)C1OC(C)=O` (stereo not drawn), for which the TGI was above 100 µM.

`CC12OC(=O)C(C#N)C1(C)C1C(=O)CCCC12` (stereo not drawn) returned a TGI above 100 µM.

As to `CCc1cccc(CC)c1NC(=O)/C(Cl)=C(/Cl)C(=O)O`, the TGI was above 100 µM.

`O=[N+]([O-])c1ccc(-c2ccc(C3=Nn4c(CNc5ccccc5Cl)nnc4SC3)o2)cc1`: the TGI is above 100 µM.

On to `CCCC(=O)CC(C)C(=O)C(=O)NC12CC3CC(CC(C3)C1)C2` (stereo not drawn), for which the TGI was above 100 µM.

In turn, `CC(=O)OCC(=O)[C@@]1(O)CC[C@H]2[C@@H]3C[C@H](C)C4=CC(=O)C=C[C@]4(C)[C@@]3(F)[C@@H](O)C[C@@]21C` gave a TGI above 100 µM.

In turn, `Nc1nc(=S)c2c(ncn2CCO)[nH]1` displayed a TGI above 100 µM.

`COc1cc(/C=C/c2csnn2)cc(OC)c1OC` returned a TGI above 100 µM.

With `c1ccc(C(c2ccccc2)c2ccccn2)cc1`, the TGI was above 100 µM.

`N#CC1CC(c2ccccc2)Nc2cc(Cl)ccc2N1` (stereo not drawn) returned a TGI above 100 µM.

The next assay relates to NCI/ADR-RES ovarian. The experiment in a line: DTP human tumour cell line panel, 48 h.
In the case of `COc1cc(C(=O)/C=C/c2cccc(Nc3ccnc4cc(Cl)ccc34)c2)cc(OC)c1OC`, the GI50 was 0.409 µM and the TGI was determined as 2.94 µM.

Take `O=NN(CCCl)C(=O)NC1CCC(CC(=O)O)CC1` (stereo not drawn): the TGI is above 100 µM.

A further assay has as its system SF-268 CNS. As to the kind of experiment: DTP human tumour cell line panel, 48 h.
In turn, `CCOC(=O)C1=C(NC)OCC1=O` returned a TGI above 100 µM.

In the case of `CCOC(=O)C1(C)CCC(C(C(=O)O)C(=O)O)CC1=O` (stereo not drawn), the TGI was above 100 µM.

Take `COC(=O)C1=C(C(=O)OC)C2(c3ccccc3)OC1(c1ccccc1)c1cc3ccccc3cc12`: the TGI is 3.77 µM.

For `CC1NOC(=O)C1N=Nc1ccc(Cl)cc1Cl` (stereo not drawn), the TGI is 81.7 µM.

`O=C1NC(=O)C2C(=O)NC(=O)C1C2Cc1ccco1` (stereo not drawn) returned a TGI above 100 µM.

`CCOC(=O)/C(=C/c1ccccn1)C(=O)c1ccccc1`: the TGI stood at 44 µM.

With `O=C(c1ccccc1)[C@H]1Nc2ccc(Cl)cc2[C@H]2CCC[C@@H]12`, the TGI is above 100 µM.

Take `COc1ccc2nc(NC(=O)C(=O)CC(=O)c3ccc([N+](=O)[O-])cc3)sc2c1`: the TGI is above 100 µM.

Compound `CC(=O)Nc1ccc(C2CC(c3ccc([N+](=O)[O-])cc3)=Nc3ccccc3S2=O)cc1` (stereo not drawn) registered a TGI above 100 µM.

For `COc1cc(/C=C2\NC(=O)C(Cc3cc(OC)c(OC)c(C)c3OC)N(C(C)=O)C2=O)c(OC)c(C)c1OC` (stereo not drawn), the TGI was above 100 µM.

Compound `O=NN(CCCl)C(=O)NC1CCC(CC(=O)O)CC1` (stereo not drawn) displayed a TGI above 100 µM.

In turn, `C[C@H](C(=O)O)C(=O)NC(=O)N(Cc1ccccc1)N=O` registered a TGI above 100 µM.

Consider `NNC(=O)C(=O)NN=C(C(Cl)(Cl)CO)C(Cl)(Cl)CO`, for which the TGI was above 100 µM.

With `COc1ccc(/C=C2\C(=O)N(NC(C)=O)c3ccccc32)cc1`, the TGI is above 100 µM.

`O=C1N[C@@H]2CCCC[C@@H]2C12CCCCC2` registered a TGI above 100 µM.

`COc1ccc2ccccc2c1C1=NC(C)(C)CO1`: the TGI is above 100 µM.

`NC1=NC(Cn2nc(-c3ccccc3)c3ccccc3c2=O)=NNC(=O)N1` came in with a TGI above 100 µM.

With `O=C(CCCC(=O)Nc1ccc(Cl)cc1Cl)CC(=O)c1ccc2ccccc2c1`, the TGI was above 100 µM.

Turning to `O=C(NCCc1ccccc1)C1C(=O)C(=O)N(CCc2ccccc2)C1=O` (stereo not drawn), the TGI is above 100 µM.

On to `OC(c1ccccc1Br)(c1ccccc1Br)C(F)(F)F`, for which the TGI amounted to 43 µM.

For the compound `CC(=O)OC1COC(N2CCc3cc([N+](=O)[O-])ccc32)C(OC(C)=O)C1OC(C)=O` (stereo not drawn), the TGI was above 100 µM.

Compound `CCOC(=O)C1S(=O)(=O)OCCOS1(=O)=O` gave a TGI above 100 µM.

In turn, `CC12OC(=O)C(C#N)C1(C)C1C(=O)CCCC12` (stereo not drawn) yielded a TGI above 100 µM.

`Cc1nc2ccccc2c(=O)n1/N=C(\N=Nc1ccccc1Cl)c1ccccc1Cl` came in with a total growth inhibition concentration (TGI) above 100 µM.

`CCc1cccc(CC)c1NC(=O)/C(Cl)=C(/Cl)C(=O)O` returned a TGI of 64.1 µM.

As for `O=[N+]([O-])c1ccc(-c2ccc(C3=Nn4c(CNc5ccccc5Cl)nnc4SC3)o2)cc1`, the TGI was above 100 µM.

Turning to `CCCC(=O)CC(C)C(=O)C(=O)NC12CC3CC(CC(C3)C1)C2` (stereo not drawn), the total growth inhibition concentration (TGI) is above 100 µM.

`CC(=O)OCC(=O)[C@@]1(O)CC[C@H]2[C@@H]3C[C@H](C)C4=CC(=O)C=C[C@]4(C)[C@@]3(F)[C@@H](O)C[C@@]21C` came in with a TGI above 100 µM.

`Nc1nc(=S)c2c(ncn2CCO)[nH]1` had a TGI above 100 µM.

The compound `COc1cc(/C=C/c2csnn2)cc(OC)c1OC` registered a TGI above 100 µM.

Take `c1ccc(C(c2ccccc2)c2ccccn2)cc1`: the TGI is above 100 µM.
